Results: patent US12539292B2, “BRM targeting compounds and associated methods of use” (Arvinas Operations, Inc., priority 2018, dated 2026)
Read-outs that look alike come from different tables or passages of the source.

Molecular target: T1, BRM (Homo sapiens, UniProt P51531)
T1 construct: In-Cell Western Screen of BRM Degradation in SW1573 Cells; endogenous in cells; host or cells: SW1573
Experiment: In-cell Western screen of BRM degradation in SW1573 cells (Dmax and DC50)
Type: cell-based
Procedure, shortened: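 Overnight compound treatment (18-20 h, final DMSO 0.1%) of SW1573 cells in DMEM with 10% FBS precedes fixation and in-cell Western staining with 800/680 nm dye-labelled secondaries. Plate images give DC50 and maximal degradation.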

[1] = SW1573, % degraded, when tested at the top concentration of between 0.3 and 10 μM, read-out: BRM Dmax (%)
[2] = target protein degradation, read-out: BRM DC50
[3] = BRM degradation, SW1573 cells, read-out: DC50
[4] = BRM degradation, SW1573 cells, when tested at the top concentration of between 0.3 and 10 μM, read-out: Dmax (%) (% degraded)
[5] = BRM degradation, SW1573 cells, read-out: Dmax (% degraded)

T1 sequence (P51531 whole entry): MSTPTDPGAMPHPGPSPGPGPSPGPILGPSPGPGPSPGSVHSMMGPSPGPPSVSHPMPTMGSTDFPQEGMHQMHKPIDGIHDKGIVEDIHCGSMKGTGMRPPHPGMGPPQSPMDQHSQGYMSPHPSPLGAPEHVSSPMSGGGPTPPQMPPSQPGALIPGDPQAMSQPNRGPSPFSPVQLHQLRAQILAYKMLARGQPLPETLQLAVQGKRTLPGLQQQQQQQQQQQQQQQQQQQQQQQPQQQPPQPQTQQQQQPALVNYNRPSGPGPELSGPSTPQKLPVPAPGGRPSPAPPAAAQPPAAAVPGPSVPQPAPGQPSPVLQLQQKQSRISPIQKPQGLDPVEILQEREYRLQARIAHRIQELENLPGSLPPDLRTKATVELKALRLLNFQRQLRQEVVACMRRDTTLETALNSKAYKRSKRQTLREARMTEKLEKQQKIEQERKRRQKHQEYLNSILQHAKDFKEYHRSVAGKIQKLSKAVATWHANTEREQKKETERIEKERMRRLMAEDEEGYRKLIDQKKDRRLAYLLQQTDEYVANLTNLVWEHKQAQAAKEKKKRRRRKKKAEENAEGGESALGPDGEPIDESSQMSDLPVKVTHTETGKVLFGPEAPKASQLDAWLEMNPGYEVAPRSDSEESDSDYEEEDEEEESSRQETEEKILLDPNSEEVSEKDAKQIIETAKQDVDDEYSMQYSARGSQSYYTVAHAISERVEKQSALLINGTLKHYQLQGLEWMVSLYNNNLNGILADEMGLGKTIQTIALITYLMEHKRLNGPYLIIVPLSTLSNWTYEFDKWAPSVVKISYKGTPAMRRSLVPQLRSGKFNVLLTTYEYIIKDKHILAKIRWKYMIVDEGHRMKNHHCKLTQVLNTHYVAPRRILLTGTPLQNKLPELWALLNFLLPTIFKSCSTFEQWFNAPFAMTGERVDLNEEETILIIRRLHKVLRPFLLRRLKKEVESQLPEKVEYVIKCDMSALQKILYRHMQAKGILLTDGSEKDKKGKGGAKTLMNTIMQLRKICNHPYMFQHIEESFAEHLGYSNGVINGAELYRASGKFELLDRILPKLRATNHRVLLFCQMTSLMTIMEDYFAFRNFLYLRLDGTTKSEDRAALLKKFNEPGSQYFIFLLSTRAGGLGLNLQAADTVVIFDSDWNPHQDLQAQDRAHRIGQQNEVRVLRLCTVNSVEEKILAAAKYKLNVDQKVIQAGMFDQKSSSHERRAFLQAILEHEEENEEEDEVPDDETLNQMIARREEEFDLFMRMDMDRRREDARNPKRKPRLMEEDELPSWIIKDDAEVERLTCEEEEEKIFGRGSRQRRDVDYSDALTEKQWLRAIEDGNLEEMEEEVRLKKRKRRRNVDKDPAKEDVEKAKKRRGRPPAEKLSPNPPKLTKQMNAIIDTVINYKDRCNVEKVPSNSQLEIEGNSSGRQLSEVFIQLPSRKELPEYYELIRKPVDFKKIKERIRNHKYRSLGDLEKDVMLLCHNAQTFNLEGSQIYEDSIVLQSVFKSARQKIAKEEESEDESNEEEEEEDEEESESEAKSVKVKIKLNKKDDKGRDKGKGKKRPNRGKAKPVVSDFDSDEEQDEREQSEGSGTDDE

Compound	Dmax [1]	DC50 [2]	DC50 [3]	further results
Cc1ncsc1-c1ccc([C@H](C)NC(=O)[C@@H]2C[C@@H](O)CN2C(=O)[C@H](c2cc(OCCC3CCN(C(=O)[C@H]4C[C@@H](CN5CCC([C@H](C)n6cc(-c7cc(-c8ccccc8O)nnc7N)cn6)CC5)C4)CC3)no2)C(C)C)cc1 [compound 449, (2S,4R)-1-((S)-2-(3-(2-(1-((1R,3R)-3-((4-((S)-1-(4-(3-amino-6-(2-hydroxyphenyl)pyridazin-4-yl)-1H-pyrazol-1-yl)ethyl)piperidin-1-yl)methyl)cyclobutane-1-carbonyl)piperidin-4-yl)ethoxy)isoxazol-5-yl)-3-methylbutanoyl)-4-hydroxy-N-((S)-1-(4-(4-methylthiazol-5-yl)phenyl)ethyl)pyrrolidine-2-carboxamide]	> 75%	< 2.5 nM	–	–
Cc1ncsc1-c1ccc([C@H](C)NC(=O)[C@@H]2C[C@@H](O)CN2C(=O)[C@@H](c2cc(OCCCN3CCN(CCCOc4cc(N5C6CCC5CN(c5cc(-c7ccccc7O)nnc5N)C6)ccn4)CC3)no2)C(C)C)cc1 [compound 385, (2S,4R)-1-((2R)-2-(3-(3-(4-(3-((4-(3-(3-amino-6-(2-hydroxyphenyl)pyridazin-4-yl)-3,8-diazabicyclo[3.2.1]octan-8-yl)pyridin-2-yl)oxy)propyl)piperazin-1-yl)propoxy)isoxazol-5-yl)-3-methylbutanoyl)-4-hydroxy-N-((S)-1-(4-(4-methylthiazol-5-yl)phenyl)ethyl)pyrrolidine-2-carboxamide]	> 75%	< 2.5 nM	–	–
Cc1ncsc1-c1ccc(CNC(=O)[C@@H]2C[C@@H](O)CN2C(=O)[C@@H](NC(=O)COCCOCCOCCn2cc(-c3cc(-c4ccccc4O)nnc3N)cn2)C(C)(C)C)cc1 [compound 1, (2S,4R)-1-((S)-14-(4-(3-amino-6-(2-hydroxyphenyl)pyridazin-4-yl)-1H-pyrazol-1-yl)-2-(tert-butyl)-4-oxo-6,9,12-trioxa-3-azatetradecanoyl)-4-hydroxy-N-(4-(4-methylthiazol-5-yl)benzyl)pyrrolidine-2-carboxamide]	–	–	> 30 nM	Dmax [4]: > 75%
Cc1nccn1-c1ccc([C@H](C)NC(=O)[C@@H]2C[C@@H](O)CN2C(=O)[C@@H](c2cc(OC/C=C/c3ccc(O[C@H]4C[C@H](Oc5cc(N6C7CCC6CN(c6cc(-c8ccccc8O)nnc6N)C7)ccn5)C4)cn3)no2)C(C)C)cc1 [compound 277, (2S,4R)-1-((2R)-2-(3-(((E)-3-(5-((1r,3R)-3-((4-(3-(3-amino-6-(2-hydroxyphenyl)pyridazin-4-yl)-3,8-diazabicyclo[3.2.1]octan-8-yl)pyridin-2-yl)oxy)cyclobutoxy)pyridin-2-yl)allyl)oxy)isoxazol-5-yl)-3-methylbutanoyl)-4-hydroxy-N-((S)-1-(4-(2-methyl-1H-imidazol-1-yl)phenyl)ethyl)pyrrolidine-2-carboxamide]	–	–	< 2.5 nM	Dmax (BRM degradation, SW1573 cells, tested at the top concentration of between 0.3 and 10 μM, read-out: Dmax (%) (% degraded)): > 75%
COCC[C@@H](NC(=O)[C@@H]1C[C@@H](O)CN1C(=O)[C@@H](c1cc(N2CCC(CN3CCC(O[C@H]4C[C@H](Oc5cc(N6C7CCC6CN(c6cc(-c8ccccc8O)nnc6N)C7)ccn5)C4)CC3)CC2)no1)C(C)C)c1ccc(-c2scnc2C)cc1 [compound 669, (2S,4R)-1-((2R)-2-(3-(4-((4-((1r,3r)-3-((4-(3-(3-amino-6-(2-hydroxyphenyl)pyridazin-4-yl)-3,8-diazabicyclo[3.2.1]octan-8-yl)pyridin-2-yl)oxy)cyclobutoxy)piperidin-1-yl)methyl)piperidin-1-yl)isoxazol-5-yl)-3-methylbutanoyl)-4-hydroxy-N-((R)-3-methoxy-1-(4-(4-methylthiazol-5-yl)phenyl)propyl)pyrrolidine-2-carboxamide]	–	–	10 to 30 nM	Dmax [5]: 50 to 75%
C#Cc1ccc([C@H](C)NC(=O)[C@@H]2C[C@@H](O)CN2C(=O)[C@@H](c2cc(N3CCC(CN4CCC(O[C@H]5C[C@H](Oc6cc(N7C8CCC7CN(c7cc(-c9ccccc9O)nnc7N)C8)ccn6)C5)CC4)CC3)no2)C(C)C)cc1 [compound 678, (2S,4R)-1-((2R)-2-(3-(4-((4-((1r,3r)-3-((4-(3-(3-amino-6-(2-hydroxyphenyl)pyridazin-4-yl)-3,8-diazabicyclo[3.2.1]octan-8-yl)pyridin-2-yl)oxy)cyclobutoxy)piperidin-1-yl)methyl)piperidin-1-yl)isoxazol-5-yl)-3-methylbutanoyl)-N-((S)-1-(4-ethynylphenyl)ethyl)-4-hydroxypyrrolidine-2-carboxamide]	–	–	< 2.5 nM	Dmax [5]: > 75%
Cc1ncsc1-c1ccc([C@H](C)NC(=O)[C@@H]2C[C@@H](O)CN2C(=O)[C@H](c2cc(OCCCN3CCN(CCCOc4cc(N5C6CCC5CN(c5cc(-c7ccccc7O)nnc5N)C6)ccn4)CC3)no2)C(C)C)cc1 [compound 384, (2S,4R)-1-((2S)-2-(3-(3-(4-(3-((4-(3-(3-amino-6-(2-hydroxyphenyl)pyridazin-4-yl)-3,8-diazabicyclo[3.2.1]octan-8-yl)pyridin-2-yl)oxy)propyl)piperazin-1-yl)propoxy)isoxazol-5-yl)-3-methylbutanoyl)-4-hydroxy-N-((S)-1-(4-(4-methylthiazol-5-yl)phenyl)ethyl)pyrrolidine-2-carboxamide]	> 75%	2.5 to 10 nM	–	–
Cc1ncn(C)c1-c1ccc([C@H](C)NC(=O)[C@@H]2C[C@@H](O)CN2C(=O)[C@@H](c2cc(OCCN3CCC(O[C@H]4C[C@H](Oc5cc(N6C7CCC6CN(c6cc(-c8ccccc8O)nnc6N)C7)ccn5)C4)CC3)no2)C(C)C)cc1 [compound 366, (2S,4R)-1-((2R)-2-(3-(2-(4-((1r,3R)-3-((4-(3-(3-amino-6-(2-hydroxyphenyl)pyridazin-4-yl)-3,8-diazabicyclo[3.2.1]octan-8-yl)pyridin-2-yl)oxy)cyclobutoxy)piperidin-1-yl)ethoxy)isoxazol-5-yl)-3-methylbutanoyl)-N-((S)-1-(4-(1,4-dimethyl-1H-imidazol-5-yl)phenyl)ethyl)-4-hydroxypyrrolidine-2-carboxamide]	> 75%	2.5 to 10 nM	–	–
Cc1ncsc1-c1ccc([C@H](C)NC(=O)[C@@H]2C[C@@H](O)CN2C(=O)[C@@H](c2cc(N3CCC(CN4CCC(O[C@H]5C[C@H](Oc6cc(N7C8CCC7CN(c7cc(-c9ccccc9O)nnc7N)C8)ccn6)C5)CC4)CC3)no2)C(C)C)cc1F [compound 652, (2S,4R)-1-((2R)-2-(3-(4-((4-((1r,3r)-3-((4-(3-(3-amino-6-(2-hydroxyphenyl)pyridazin-4-yl)-3,8-diazabicyclo[3.2.1]octan-8-yl)pyridin-2-yl)oxy)cyclobutoxy)piperidin-1-yl)methyl)piperidin-1-yl)isoxazol-5-yl)-3-methylbutanoyl)-N-((S)-1-(3-fluoro-4-(4-methylthiazol-5-yl)phenyl)ethyl)-4-hydroxypyrrolidine-2-carboxamide]	–	–	< 2.5 nM	Dmax [5]: > 75%
CC(=O)N1CC(NC(=O)[C@@H]2C[C@@H](O)CN2C(=O)[C@@H](c2cc(OCCN3CCN(CCOc4cc(N5C6CCC5CN(c5cc(-c7ccccc7O)nnc5N)C6)ccn4)CC3)no2)C(C)C)(c2ccc(-c3scnc3C)cc2)C1 [compound 127, (2S,4R)-N-(1-acetyl-3-(4-(4-methylthiazol-5-yl)phenyl)azetidin-3-yl)-1-((2R)-2-(3-(2-(4-(2-((4-(3-(3-amino-6-(2-hydroxyphenyl)pyridazin-4-yl)-3,8-diazabicyclo[3.2.1]octan-8-yl)pyridin-2-yl)oxy)ethyl)piperazin-1-yl)ethoxy)isoxazol-5-yl)-3-methylbutanoyl)-4-hydroxypyrrolidine-2-carboxamide]	–	–	10 to 30 nM	Dmax [4]: > 75%
Cc1ncsc1-c1ccc([C@@H](NC(=O)[C@@H]2C[C@@H](O)CN2C(=O)[C@@H](c2cc(OCCN3CCC(O[C@H]4C[C@H](Oc5cc(N6C7CCC6CN(c6cc(-c8ccccc8O)nnc6N)C7)ccn5)C4)CC3)no2)C(C)C)C(=O)N(C)C2CCC2)cc1 [compound 420, (2S,4R)-1-((2R)-2-(3-(2-(4-((1r,3R)-3-((4-(3-(3-amino-6-(2-hydroxyphenyl)pyridazin-4-yl)-3,8-diazabicyclo[3.2.1]octan-8-yl)pyridin-2-yl)oxy)cyclobutoxy)piperidin-1-yl)ethoxy)isoxazol-5-yl)-3-methylbutanoyl)-N-((R)-2-(cyclobutyl(methyl)amino)-1-(4-(4-methylthiazol-5-yl)phenyl)-2-oxoethyl)-4-hydroxypyrrolidine-2-carboxamide]	> 75%	–	–	DC50 (degradation of BRM, read-out: BRM DC50): < 2.5 nM
Cc1ncsc1-c1ccc([C@H](C)NC(=O)[C@@H]2C[C@@H](O)CN2C(=O)C(C(C)C)n2cc(OCCN3CCN(CCOc4cc(N5C6CCC5CN(c5cc(-c7ccccc7O)nnc5N)C6)ccn4)CC3)cn2)cc1 (stereo in doubt) [compound 38, (2S,4R)-1-[(2R)-2-[4-[2-(4-[2-[(4-[3-[3-amino-6-(2-hydroxyphenyl)pyridazin-4-yl]-3,8-diazabicyclo[3.2.1]octan-8-yl]pyridin-2-yl)oxy]ethyl]piperazin-1-yl)ethoxy]-1H-pyrazol-1-yl]-3-methylbutanoyl]-4-hydroxy-N-[(1S)-1-[4-(4-methyl-1,3-thiazol-5-yl)phenyl]ethyl]pyrrolidine-2-carboxamide]	–	–	10 to 30 nM	Dmax [4]: > 75%
